Tests used:
Assay in all cases: relative viability (nuclei count vs DMSO), 5 days (fraction); higher = more cells survive
NCI-H2085 = test system: NCI-H2085
In short: (§1)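 Relative viability equals treated-well nuclei counts divided by vehicle-well nuclei counts. Counts came from 4× images of lung cancer cell lines grown in 1536-well plates for 5 days after pin-tool dosing on the day after seeding. Dosing used one drug alone or a fixed anchor-drug dose plus five library-drug doses (not always all listed) in √10 steps, and values are medians of duplicate plates.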

LXF-289 = test system: LXF-289
In short: as §1

NCI-H661 = test system: NCI-H661
In short: as §1

LC-2-ad = test system: LC-2-ad
In short: as §1

EMC-BAC-2 = test system: EMC-BAC-2
In short: as §1

H3255 = test system: H3255
In short: as §1

COR-L 105 = test system: COR-L 105
In short: as §1

CAL-12T = test system: CAL-12T
In short: as §1

NCI-H2347 = test system: NCI-H2347
In short: as §1

PC-3 [JPC-3] = test system: PC-3 [JPC-3]
In short: as §1

EKVX = test system: EKVX
In short: as §1

NCI-H1437 = test system: NCI-H1437
In short: as §1

NCI-H1651 = test system: NCI-H1651
In short: as §1

NCI-H2228 = test system: NCI-H2228
In short: as §1

SK-LU-1 = test system: SK-LU-1
In short: as §1

NCI-H1755 = test system: NCI-H1755
In short: as §1

NCI-H1915 = test system: NCI-H1915
In short: as §1

NCI-H2087 = test system: NCI-H2087
In short: as §1

## O=C(O)CCCCC(CCSCc1ccccc1)SCc1ccccc1 (centres undefined) [CPI-613] + CC(C)C[C@H](NC(=O)[C@H](Cc1ccccc1)NC(=O)c1cnccn1)B(O)O [Bortezomib] (partner 0.002 µM)
NCI-H2085; first compound 5 µM
  relative viability: 0.984
NCI-H2085; first compound 15.81 µM
  relative viability: 0.847
NCI-H2085; first compound 50 µM
  relative viability: 0.995
NCI-H2085; first compound 158.11 µM
  relative viability: 0.873
NCI-H2085; first compound 500 µM
  relative viability: 0.194
LXF-289; first compound 5 µM
  relative viability: 0.981
LXF-289; first compound 15.81 µM
  relative viability: 1.03
LXF-289; first compound 50 µM
  relative viability: 0.94
LXF-289; first compound 158.11 µM
  relative viability: 0.554
LXF-289; first compound 500 µM
  relative viability: 0.069
NCI-H661; first compound 5 µM
  relative viability: 0.749
NCI-H661; first compound 15.81 µM
  relative viability: 0.66
NCI-H661; first compound 50 µM
  relative viability: 0.85
NCI-H661; first compound 158.11 µM
  relative viability: 0.709
NCI-H661; first compound 500 µM
  relative viability: 0.709
LC-2-ad; first compound 5 µM
  relative viability: 0.621
LC-2-ad; first compound 15.81 µM
  relative viability: 0.932
LC-2-ad; first compound 50 µM
  relative viability: 0.979
LC-2-ad; first compound 158.11 µM
  relative viability: 0.259
LC-2-ad; first compound 500 µM
  relative viability: 0.0023
EMC-BAC-2; first compound 5 µM
  relative viability: 1.06
EMC-BAC-2; first compound 15.81 µM
  relative viability: 0.993
EMC-BAC-2; first compound 50 µM
  relative viability: 1.07
EMC-BAC-2; first compound 158.11 µM
  relative viability: 0.936
EMC-BAC-2; first compound 500 µM
  relative viability: 0.4
H3255; first compound 5 µM
  relative viability: 0.815
H3255; first compound 15.81 µM
  relative viability: 0.719
H3255; first compound 50 µM
  relative viability: 0.781
H3255; first compound 158.11 µM
  relative viability: 0.734
H3255; first compound 500 µM
  relative viability: 0.736
COR-L 105; first compound 5 µM
  relative viability: 0.652
COR-L 105; first compound 15.81 µM
  relative viability: 0.859
COR-L 105; first compound 50 µM
  relative viability: 0.542
COR-L 105; first compound 158.11 µM
  relative viability: 0.287
COR-L 105; first compound 500 µM
  relative viability: 0.195
CAL-12T; first compound 5 µM
  relative viability: 0.866
CAL-12T; first compound 15.81 µM
  relative viability: 0.774
CAL-12T; first compound 50 µM
  relative viability: 0.758
CAL-12T; first compound 158.11 µM
  relative viability: 0.498
CAL-12T; first compound 500 µM
  relative viability: 0.277
NCI-H2347; first compound 5 µM
  relative viability: 0.606
NCI-H2347; first compound 15.81 µM
  relative viability: 0.833
NCI-H2347; first compound 50 µM
  relative viability: 1.2
NCI-H2347; first compound 500 µM
  relative viability: 1
PC-3 [JPC-3]; first compound 5 µM
  relative viability: 0.83
PC-3 [JPC-3]; first compound 15.81 µM
  relative viability: 0.695
PC-3 [JPC-3]; first compound 50 µM
  relative viability: 0.755
PC-3 [JPC-3]; first compound 158.11 µM
  relative viability: 0.451
PC-3 [JPC-3]; first compound 500 µM
  relative viability: 0.452
EKVX; first compound 5 µM
  relative viability: 0.864
EKVX; first compound 15.81 µM
  relative viability: 0.957
EKVX; first compound 50 µM
  relative viability: 1.05
EKVX; first compound 158.11 µM
  relative viability: 0.548
EKVX; first compound 500 µM
  relative viability: 1.04
NCI-H1437; first compound 5 µM
  relative viability: 0.479
NCI-H1437; first compound 15.81 µM
  relative viability: 0.397
NCI-H1437; first compound 50 µM
  relative viability: 0.493
NCI-H1437; first compound 158.11 µM
  relative viability: 0.115
NCI-H1437; first compound 500 µM
  relative viability: 0.0227
NCI-H1651; first compound 5 µM
  relative viability: 0.91
NCI-H1651; first compound 15.81 µM
  relative viability: 0.9
NCI-H1651; first compound 50 µM
  relative viability: 0.866
NCI-H1651; first compound 158.11 µM
  relative viability: 0.914
NCI-H1651; first compound 500 µM
  relative viability: 1
NCI-H2228; first compound 5 µM
  relative viability: 0.918
NCI-H2228; first compound 15.81 µM
  relative viability: 1.04
NCI-H2228; first compound 50 µM
  relative viability: 1.07
NCI-H2228; first compound 158.11 µM
  relative viability: 0.217
NCI-H2228; first compound 500 µM
  relative viability: 0.0287
SK-LU-1; first compound 5 µM
  relative viability: 1.31
SK-LU-1; first compound 15.81 µM
  relative viability: 0.781
SK-LU-1; first compound 50 µM
  relative viability: 1.32
SK-LU-1; first compound 158.11 µM
  relative viability: 1.02
SK-LU-1; first compound 500 µM
  relative viability: 0.935
NCI-H1755; first compound 5 µM
  relative viability: 0.959
NCI-H1755; first compound 15.81 µM
  relative viability: 0.945
NCI-H1755; first compound 50 µM
  relative viability: 0.875
NCI-H1755; first compound 158.11 µM
  relative viability: 0.707
NCI-H1755; first compound 500 µM
  relative viability: 0.114
NCI-H1915; first compound 5 µM
  relative viability: 0.992
NCI-H1915; first compound 15.81 µM
  relative viability: 0.99
NCI-H1915; first compound 50 µM
  relative viability: 0.946
NCI-H1915; first compound 158.11 µM
  relative viability: 0.799
NCI-H1915; first compound 500 µM
  relative viability: 0.746
NCI-H2087; first compound 5 µM
  relative viability: 0.838
NCI-H2087; first compound 15.81 µM
  relative viability: 0.725
NCI-H2087; first compound 50 µM
  relative viability: 0.827
NCI-H2087; first compound 158.11 µM
  relative viability: 0.33
NCI-H2087; first compound 500 µM
  relative viability: 0.016

From the supplement of paper PMC10307832
